Laboratory results from ChEMBL document CHEMBL2380308, “Voulkensin C-E, new 11-oxocassane-type diterpenoids and a steroid glycoside from Caesalpinia volkensii stem bark and their antiplasmodial activities” (Bioorg Med Chem Lett, 2013).

Key:
Plasmodium falciparum [1] = test: Antiplasmodial activity against Plasmodium falciparum W2; format: functional, organism-based
Plasmodium falciparum [2] = test: Antiplasmodial activity against Plasmodium falciparum D6; format: functional, organism-based

| IC50 (Plasmodium falciparum [1]) [µM] | IC50 (Plasmodium falciparum [2]) [µM] | SMILES |
| --- | --- | --- |
| 24.4 | 18.7 | COC(=O)[C@]12CCC(C)(C)C[C@H]1C1=CC[C@@H]3[C@@]4(C)CC[C@H](OC(C)=O)C(C)(C)[C@@H]4CC[C@@]3(C)[C@]1(C)CC2 |
| 16.5 | 11.6 | C=C1C(CCOC(=O)/C=C/c2ccc(O)c(O)c2)=CC(=O)[C@H]2[C@H]1CC[C@H]1C(C)(C)CCC[C@]21C |
| 22.8 | 17.3 | C=C1C(CCO)=CC(=O)[C@H]2[C@H]1CC[C@H]1C(C)(C)CCC[C@]21C |
| 15.6 | 18.7 | C[C@H]1C(CCO)=CC(=O)[C@H]2[C@H]1CC[C@H]1C(C)(C)CCC[C@]21C |
| 2.74 | 4.44 | CC[C@H](/C=C/[C@@H](C)[C@H]1CC[C@H]2[C@@H]3CC=C4C[C@@H](O[C@@H]5OC[C@@H](O)[C@H](O)[C@H]5O[C@@H]5O[C@H](CO)[C@@H](O)[C@H](O)[C@H]5O)CC[C@]4(C)[C@H]3CC[C@]12C)C(C)C |
| 30.7 | 34.4 | CC(=O)O[C@@]1(C)CCC[C@]2(C)[C@H]3Cc4occc4[C@H](C)[C@@H]3CC[C@@]12O |
| 30.3 | 25.7 | CC(=O)O[C@@]1(C)CCC[C@@]2(C)[C@H]1CC[C@H]1[C@@H](C)c3ccoc3C[C@@H]12 |
| 26.2 | 23.8 | CC1(C)CC[C@]2(C(=O)O)CC[C@]3(C)C(=CC[C@@H]4[C@@]5(C)CC[C@H](O)C(C)(C)[C@@H]5CC[C@]43C)[C@@H]2C1 [OLEANOLIC_ACID] |
| > 50 | > 50 | C[C@H]1c2ccoc2C[C@H]2[C@H]1CC[C@@]1(O)C(C)(C)CCC[C@]21C [VOUCAPAN-5 ALPHA-OL] |

| SMILES | IC50 (Plasmodium falciparum [1]) [µM] | IC50 (Plasmodium falciparum [2]) [µM] |
| --- | --- | --- |
| CC[C@H](CC[C@@H](C)[C@H]1CC[C@H]2[C@@H]3CC=C4C[C@@H](O)CC[C@]4(C)[C@H]3CC[C@]12C)C(C)C [BETA-SITOSTEROL] | > 50 | > 50 |
| CC[C@H](/C=C/[C@@H](C)[C@H]1CC[C@H]2[C@@H]3CC=C4C[C@@H](O)CC[C@]4(C)[C@H]3CC[C@]12C)C(C)C [STIGMASTEROL] | > 50 | > 50 |
